Data as given in patent US7115382B1, “Method for detecting IGFBP-4 protease without detecting IGFBP-4 protease/proMBP Complex” (Mayo Foundation for Medical Education and Research, priority 1999, dated 2006).

Tested on: HEK 293 cells
Test: Flow cytometry of PAPP-A binding to the cell surface
Format: cell-based, human
Settings: HEK 293 cells transfected with rPAPP-A cDNA, mAb 234-2 detection
Procedure: Flow cytometry was used to assess the binding of PAPP-A to the cell surface of HEK 293 cells either transfected with empty expression vector or with the vector containing cDNA encoding rPAPP-A (see Example 4 for a description of vectors and transfections). […] Fifty μl of the cell suspension was incubated with primary antibody (final concentration 5 μg/ml purified PAPP-A specific mAb 234-2) on ice for 30 min. Cells were then washed three times with L15/FBS and incubated with fluorescein isothiocyanate-conjugated goat anti-mouse IgG (heavy and light chain, Zymed Laboratories, San Francisco, Calif.) for 30 min on ice. Cells were fixed in buffer with 1% formaldehyde before flow cytometry on a Becton Dickinson instrument. […] Similar results were obtained with other PAPP-A monoclonal antibodies (234-3, 234-4, 234-5, and 234-7).

PAPP-A: pregnancy-associated plasma protein-A, the IGF-dependent IGFBP-4 protease
Binding to the cell surface: binds to the surface of HEK 293 cells
